Test results taken from PMC11111408, “Concurrent inhibition of oncogenic and wild-type RAS-GTP for cancer therapy” (Nature, 2024).
Read-outs that look alike come from different tables or passages of the source.

System: panel of 183 cancer cell lines
Test: Cell panel of 183 cancer cell lines, viability (CTG) at Crown Bioscience
Format: cell-based
Conditions: Homo sapiens
Text: The panel consisted of cell lines with any substitution at position 12 of KRAS, NRAS or HRAS (KRAS(G12X), NRAS(G12X), HRAS(G12X)); substitutions in KRAS, NRAS or HRAS at any position other than 12, 13 and 61 (KRAS(other/VUS), NRAS(other/VUS), HRAS(other/VUS)); other oncogenic mutations in the RAS pathway (ABL1, ALK, ARAF, BRAF, CBL, EGFR, ERBB2, ERBB3, ERBB4, ERRFI1, FGFR1, FGFR2, FGFR3, FGFR4, FLT3, HRAS, IGF1R, JAK2, KIT, MAP2K1, MAP2K2, MAPK1, MET, NF1, NRAS, NTRK1, NTRK2, NTRK3, PDGFRA, PTPN11, RAC1, RAF1, RASA1, RET, RIT1, ROS1 and SOS1); and no oncogenic mutations in the RAS pathway. […] Cells were incubated for 120 h, and cell viability was determined using the CellTiter-Glo Luminescent Cell Viability Assay (CTG) (Promega, G7572) according to the manufacturer’s instructions.

Work on CCn1c(-c2cc(N3CCN(C4CC4)CC3)cnc2[C@H](C)OC)c2c3cc(ccc31)-c1csc(n1)C[C@H](NC(=O)[C@H]1[C@@H]3COC[C@@H]31)C(=O)N1CCC[C@H](N1)C(=O)OCC(C)(C)C2 [RMC-7977] yielded an EC50 (read-out: RMC-7977 EC50 (M), HEP3B217, RAS pathway WT, Liver) of 9.36e-09 M, an EC50 (read-out: RMC-7977 EC50 (M), HM7, KRAS G12D, Large intestine/Colorectum) of 1.86e-08 M and an EC50 (read-out: RMC-7977 EC50 (M), HS852T, NRAS G12V, Skin) of 4.07e-08 M. For the same molecule, the EC50 (read-out: RMC-7977 EC50 (M), HUH28, PTPN11 mut, Liver/Bile duct) was 3.91e-08 M, the EC50 (read-out: RMC-7977 EC50 (M), KG1, FGFR fusion, Blood/leukemia) was 9.16e-09 M and the EC50 (read-out: RMC-7977 EC50 (M), L82, ALK fusion, Blood/lymphoma) was 2e-08 M. For the same molecule, the EC50 (read-out: RMC-7977 EC50 (M), NOZ, KRAS G12V, Liver/Bile duct) was 4.17e-09 M, the EC50 (read-out: RMC-7977 EC50 (M), OZ, KRAS Q61L, Liver/Bile duct) was 3.55e-09 M and the EC50 (read-out: RMC-7977 EC50 (M), PC9, EGFR mut, Lung) was 1.56e-08 M. For the same molecule, the EC50 (read-out: RMC-7977 EC50 (M), RBE, KRAS G12V, Liver/Bile duct) was 3.39e-10 M, the EC50 (read-out: RMC-7977 EC50 (M), RKO, BRAF V600E, Large intestine/Colorectum) was greater than 1e-06 M and the EC50 (read-out: RMC-7977 EC50 (M), RT4, FGFR fusion, Bladder) was 1.32e-08 M. The EC50 (read-out: RMC-7977 EC50 (M), SCH, RAS pathway WT, Stomach) was greater than 1e-06 M, the EC50 (read-out: RMC-7977 EC50 (M), SNU719, NRAS Q61L, Stomach) was 6.76e-09 M and the EC50 (read-out: RMC-7977 EC50 (M), SNU2535, ALK fusion, Lung) was 6.42e-09 M. For the same molecule, the EC50 (read-out: RMC-7977 EC50 (M), SNUC2A, KRAS G12D, Large intestine/Colorectum) was 2.45e-09 M, the EC50 (read-out: RMC-7977 EC50 (M), SR, ALK fusion, Thymus) was 1.41e-08 M and the EC50 (read-out: RMC-7977 EC50 (M), T24, HRAS G12V, Bladder) was 1.2e-09 M. The EC50 (read-out: RMC-7977 EC50 (M), T84, KRAS G13D, Large intestine/Colorectum) was 5.62e-08 M, the EC50 (read-out: RMC-7977 EC50 (M), TE441T, RAS pathway WT, Muscle) was greater than 1e-06 M and the EC50 (read-out: RMC-7977 EC50 (M), TJ905, NF1 LOF, Brain&Nerves) was 1.06e-07 M. It also gave an EC50 (read-out: RMC-7977 EC50 (M), YCC2, KRAS G12S, Stomach) of 2.19e-09 M, an EC50 (read-out: RMC-7977 EC50 (median), median over ALK fusion cell lines) of 1.41e-08 M and an EC50 (read-out: RMC-7977 EC50 (median), median over BRAF V600E cell lines) greater than 1e-06 M. The EC50 (read-out: RMC-7977 EC50 (median), median over BRAF mut other cell lines) was 7.54e-08 M, the EC50 (read-out: RMC-7977 EC50 (median), median over EGFR mut cell lines) was 4.52e-09 M and the EC50 (read-out: RMC-7977 EC50 (median), median over ERBB3 mut cell lines) was 5.92e-09 M. The EC50 (read-out: RMC-7977 EC50 (median), median over FGFR fusion cell lines) was 7.08e-09 M, the EC50 (read-out: RMC-7977 EC50 (median), median over HRAS G12D cell lines) was 8.45e-09 M and the EC50 (read-out: RMC-7977 EC50 (median), median over HRAS G12V cell lines) was 1.2e-09 M. For the same molecule, the EC50 (read-out: RMC-7977 EC50 (median), median over HRAS G161R cell lines) was greater than 1e-06 M, the EC50 (read-out: RMC-7977 EC50 (median), median over HRAS L133R cell lines) was 1.23e-08 M and the EC50 (read-out: RMC-7977 EC50 (median), median over HRAS Q61H cell lines) was 4.57e-09 M. For the same molecule, the EC50 (read-out: RMC-7977 EC50 (median), median over HRAS Q61L cell lines) was 1.62e-08 M, the EC50 (read-out: RMC-7977 EC50 (median), median over KRAS A59T cell lines) was 1.02e-09 M and the EC50 (read-out: RMC-7977 EC50 (median), median over KRAS G12A cell lines) was 1.2e-08 M. For the same molecule, the EC50 (read-out: RMC-7977 EC50 (median), median over KRAS G12C cell lines) was 1.84e-09 M, the EC50 (read-out: RMC-7977 EC50 (median), median over KRAS G12D cell lines) was 2.86e-09 M and the EC50 (read-out: RMC-7977 EC50 (median), median over KRAS G12R cell lines) was 2.76e-09 M. For the same molecule, the EC50 (read-out: RMC-7977 EC50 (median), median over KRAS G12S cell lines) was 3.21e-09 M, the EC50 (read-out: RMC-7977 EC50 (median), median over KRAS G12V cell lines) was 1.15e-09 M and the EC50 (read-out: RMC-7977 EC50 (median), median over KRAS G13C cell lines) was 1.41e-08 M. It also gave an EC50 (read-out: RMC-7977 EC50 (median), median over KRAS G13D cell lines) of 3.16e-08 M, an EC50 (read-out: RMC-7977 EC50 (median), median over KRAS P121H cell lines) greater than 1e-06 M and an EC50 (read-out: RMC-7977 EC50 (median), median over KRAS Q61H cell lines) greater than 1e-06 M. The EC50 (read-out: RMC-7977 EC50 (median), median over KRAS Q61K cell lines) was 3.22e-09 M, the EC50 (read-out: RMC-7977 EC50 (median), median over KRAS Q61L cell lines) was 9e-09 M and the EC50 (read-out: RMC-7977 EC50 (median), median over KRAS R97I cell lines) was 2.75e-09 M. The EC50 (read-out: RMC-7977 EC50 (median), median over MET amp cell lines) was 4.57e-09 M, the EC50 (read-out: RMC-7977 EC50 (median), median over NF1 LOF cell lines) was 3.25e-08 M and the EC50 (read-out: RMC-7977 EC50 (median), median over NRAS G12V cell lines) was 4.07e-08 M. The EC50 (read-out: RMC-7977 EC50 (median), median over NRAS Q61K cell lines) was 1.91e-09 M, the EC50 (read-out: RMC-7977 EC50 (median), median over NRAS Q61L cell lines) was 6.76e-09 M and the EC50 (read-out: RMC-7977 EC50 (median), median over NRAS Q61R cell lines) was 9.12e-09 M. For the same molecule, the EC50 (read-out: RMC-7977 EC50 (median), median over NRAS Y137H cell lines) was 2.88e-08 M, the EC50 (read-out: RMC-7977 EC50 (median), median over NTRK1 fusion cell lines) was 5.14e-09 M and the EC50 (read-out: RMC-7977 EC50 (median), median over PTPN11 mut cell lines) was 7.95e-09 M. For the same molecule, the EC50 (read-out: RMC-7977 EC50 (median), median over RAS pathway WT cell lines) was 1e-07 M, the EC50 (read-out: RMC-7977 EC50 (median), median over RET fusion cell lines) was 5.15e-09 M and the EC50 (read-out: RMC-7977 EC50 (median), median over ROS1 fusion cell lines) was 7.49e-09 M.
